From patent publication US9284350B2, “IAP BIR domain binding compounds” (Pharmascience Inc., priority 2010, dated 2016)

Experiments:
[1] = tested on: Colorectal carcinoma HCT116 cells; experiment: Cell death assay (MTT) in combination with HGS ETR1; type: cell-based; settings: with HGS ETR1 30 ng/ml, 72 hours, read-out: HCT116+ mapatubimap EC50
Method: Colorectal carcinoma HCT116 cells were cultured as monolayers in 96 well plates at a density of 2000 cells per well in McCoy's 5a medium (HyClone) supplemented with 2.2 g/L sodium bicarbonate, 10% FBS (HyClone) and 1% penicillin/streptomycin (HyClone). 24 hours later, triplicate wells were treated with HGS ETR1 (30 ng/ml) in combination with compound. Cells were incubated in the presence of compound and HGS agonistic Trail receptor antibody, ETR1 (Mapatumamab, 30 ng/ml) for 72 hours. Metabolic viability of remaining cells was assessed by MTT (thiazolyl blue tetrazolium bromide, Sigma) assay.
EC50 values (50% cell survival in the presence of compound as compared to untreated controls) were calculated from survival curves using BioAssay software (CambridgeSoft) and GraphPad Prism (Graph Pad Software Inc.). The results are provided in Table 3, below, wherein A=less than 50 nM; B=less than 250 nM; C=less than 1000 nM; and D=greater than 1000 nM.

cIAP2 = target: T1, cIAP2 (Homo sapiens, UniProt Q13489); experiment: Fluorescence polarization-based competition assay, cIAP2; type: binding; settings: FP assay, ki derived from IC50
T1 construct: GST (N); made in house; host or cells: E. coli DH5α
T1 sequence (Q13489 236-349): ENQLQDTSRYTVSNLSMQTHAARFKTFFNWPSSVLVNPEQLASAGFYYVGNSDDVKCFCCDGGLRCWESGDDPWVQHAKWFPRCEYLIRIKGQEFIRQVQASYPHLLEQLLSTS
Method: (§1) Binding of compounds of Formula 1 to target BIR domains was measured using a fluorescence-polarization (FP) assay. Fluorescence-polarization was evaluated using a GENios microplate reader (TECAN) Pro instrument with the excitation filter set at 485 nm and the emission filter set at 535 nm. The final amount of protein used in the assay corresponds to the amount of protein necessary to obtain 80% of the maximum FP value in a P1 or P2 fluorescent (FITC) probe saturation experiment. The compounds potency (IC50) and selectivity, was assessed in the presence of the amount of target protein established, fluorescent probe, and a 10 point serial dilution in assay buffer (50 mM Hepes, pH 7.5, 250 mcg/mL γ-globulin, 2 mM DTT, 1% DMSO) of the selected compounds.
(§2) Assays were carried out in duplicate using untreated black 96-well plates (Corning #3915) and a total volume of 100 microliters, containing 25 microliters of fluorescent probe at a final concentration of 2 nM in assay buffer, 25 microliters of diluted compound, 25 microliters of BIR protein into assay buffer and 25 microliters of assay buffer. Buffer only (blank) or probe only in buffer (G-factor) were used as controls for calibration. The plate was incubated at room temperature in the dark for one hour and FP values in millipolarization units (mP) were recorded using Genios Pro FP reader.
(§3) The measured FP values (mP) were then plotted against compound concentration, and IC50 values were calculated based on a sigmoidal dose-response (variable-slope) curve fit using GraphPad Prism version 4.02 for Windows, GraphPad Software, San Diego Calif. USA and/or CambridgeSoft BioAssay Enterprise Version 10.1. The IC50 value is the concentration of test compound at which 50% of the tracer was displaced. ki values were derived from the calculated IC50 values as described above and according to the equation described in Nikolovska-Coleska, Z. (2004) Anal Biochem 332, 261-273. The results are presented in Table 2, wherein A=less than 25 nM; B=less than 250 nM; C=less than 1000 nM; and D=greater than 1000 nM.

XIAP = target: T2, XIAP (Homo sapiens, UniProt P98170); experiment: Fluorescence polarization-based competition assay, XIAP; type: binding; settings: FP assay, ki derived from IC50
T2 construct: fused on or other part: GST tag at the N-terminus (pGEX4T vectors)
T2 sequence (P98170 246-497 limits assumed): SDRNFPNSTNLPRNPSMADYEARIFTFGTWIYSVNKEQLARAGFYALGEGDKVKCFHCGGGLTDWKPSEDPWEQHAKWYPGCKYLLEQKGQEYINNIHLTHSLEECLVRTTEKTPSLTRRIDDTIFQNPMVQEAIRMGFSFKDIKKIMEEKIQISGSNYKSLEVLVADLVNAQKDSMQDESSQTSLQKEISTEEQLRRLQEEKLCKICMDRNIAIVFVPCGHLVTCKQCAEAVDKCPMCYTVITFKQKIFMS
Method: as §1, §2, §3

c-IAP1 = target: T3, c-IAP1 (Homo sapiens, UniProt Q13490); experiment: Fluorescence polarization-based competition assay, c-IAP1; type: binding; settings: FP assay, ki derived from IC50
T3 construct: GST (N); made in house; host or cells: E. coli DH5α
T3 sequence (Q13490 251-363): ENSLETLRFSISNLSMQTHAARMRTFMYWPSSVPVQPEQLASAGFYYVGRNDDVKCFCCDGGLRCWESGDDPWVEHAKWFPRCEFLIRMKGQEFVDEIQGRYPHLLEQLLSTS
Method: as §1, §2, §3

SMILES	Ki (cIAP2) [nM]	Ki (XIAP) [nM]	Ki (c-IAP1) [nM]	EC50 [1] [nM]
CCN[C@@H](C)C(=O)N[C@H](C(=O)N1CCC[C@H]1CN(CCc1ccccc1)C(=O)c1cn2cccnc2n1)C1CCCCC1 [Compound 2]	< 250	> 1000	< 250	< 1000
CCN[C@@H](C)C(=O)N[C@H](C(=O)N1CCC[C@H]1CN(CCc1ccccc1)C(=O)c1cn2cccnc2n1)C1CCOCC1 [Compound 4]	< 250	< 1000	< 250	> 1000
CN[C@@H](C)C(=O)N[C@H](C(=O)N1CCC[C@H]1CN(CCc1cccc(F)c1)C(=O)c1cn2cccnc2n1)C(C)(C)C [Compound 12]	< 250	< 1000	< 25	< 250
CCN[C@@H](C)C(=O)N[C@H](C(=O)N1CCC[C@H]1CN(CCc1ccccc1)C(=O)c1cn2cccnc2n1)C(C)(C)C [Compound 14]	< 250	< 1000	< 25	< 250
CN[C@@H](C)C(=O)N[C@H](C(=O)N1CCC[C@H]1CN(CCc1ccc(F)cc1)C(=O)c1cn2ccccc2n1)C(C)(C)C [Compound 17]	< 25	< 250	< 25	< 50
CN[C@@H](C)C(=O)N[C@H](C(=O)N1CCC[C@H]1CN(CCc1ccc(F)cc1)C(=O)c1cn2cccnc2n1)C1CCCCC1 [Compound 20]	< 25	< 250	< 25	< 50
CN[C@@H](C)C(=O)N[C@H](C(=O)N1CCC[C@H]1CN(CCc1ccccc1)C(=O)c1cn2cc(F)ccc2n1)C(C)(C)C [Compound 32]	< 25	< 250	< 25	< 250
CN[C@@H](C)C(=O)N[C@H](C(=O)N1CCC[C@H]1CN(CCc1ccc(F)cc1)C(=O)c1cn2cccnc2n1)[C@@H](C)OC [Compound 36]	< 25	< 250	< 25	< 250
CN[C@@H](C)C(=O)N[C@H](C(=O)N1C[C@@H](NC(=O)OCc2ccccc2)C[C@H]1CN(CCc1ccc(F)cc1)C(=O)c1cn2cccnc2n1)C(C)(C)C [Compound 44]	< 25	< 250	< 25	< 250
CN[C@@H](C)C(=O)N[C@H](C(=O)N1C[C@@H](NC(=O)c2ccccc2)C[C@H]1CN(CCc1ccc(F)cc1)C(=O)c1cn2cccnc2n1)C(C)(C)C [Compound 49]	< 25	< 1000	< 25	< 250
CN[C@@H](C)C(=O)N[C@H](C(=O)N1CCC[C@H]1CN(CCc1ccc(F)cc1)C(=O)c1cn(-c2ccccc2)nn1)C(C)(C)C [Compound 50]	< 25	< 250	< 25	< 250
CN[C@@H](C)C(=O)N[C@H](C(=O)N1CCC[C@H]1CN(CCc1ccc(F)cc1)C(=O)c1cn(-c2ccc(OC)cc2)cn1)C(C)(C)C [Compound 52]		< 250	< 25	< 250
CN[C@@H](C)C(=O)N[C@H](C(=O)N1C[C@@H](NC(C)=O)C[C@H]1CN(CCc1ccc(F)cc1)C(=O)c1cn2cccnc2n1)C(C)(C)C [Compound 55]	< 25	< 250	< 25	> 1000
CN[C@@H](C)C(=O)N[C@H](C(=O)N1C[C@@H](NC(=O)Cc2ccccc2)C[C@H]1CN(CCc1ccc(F)cc1)C(=O)c1cn2cccnc2n1)C(C)(C)C [Compound 56]	< 25	< 1000	< 25	< 1000
CN[C@@H](C)C(=O)N[C@@H](CN(C)C)C(=O)N1CCC[C@H]1CN(CCc1ccc(F)cc1)C(=O)c1cn2ccccc2n1 [Compound 57]		< 1000	< 25	< 1000
CN[C@@H](C)C(=O)N[C@H](C(=O)N1C[C@@H](NS(=O)(=O)c2ccccc2)C[C@H]1CN(CCc1ccc(F)cc1)C(=O)c1cn2cccnc2n1)C(C)(C)C [Compound 59]	< 25	< 250	< 25	< 1000
CN[C@@H](C)C(=O)N[C@H](C(=O)N1CCC[C@H]1CN(CCc1ccc(F)cc1)C(=O)c1cn(-c2ccccc2)cn1)C(C)(C)C [Compound 61]	< 25	< 250	< 25	< 250
CN[C@@H](C)C(=O)N[C@H](C(=O)N1CCC[C@H]1CN(CCc1ccc(F)cc1)C(=O)c1coc(-c2ccccc2)n1)C(C)(C)C [Compound 64]		< 250	< 25	< 250
CN[C@@H](C)C(=O)N[C@H](C(=O)N1C[C@@H](Oc2ccc(F)cc2)C[C@H]1CN(CCc1ccc(F)cc1)C(=O)c1cn2cccnc2n1)C(C)(C)C [Compound 65]	< 25	< 25	< 25	< 50
CN[C@@H](C)C(=O)N[C@H](C(=O)N1CCC[C@H]1CN(CCc1ccc(F)cc1)C(=O)c1cn(-c2ccc(F)cc2)cn1)C(C)(C)C [Compound 66]	< 25	< 250	< 25	< 50

Now from value to compound, other results behind:

Ki (cIAP2) [nM]	Ki (XIAP) [nM]	Ki (c-IAP1) [nM]	SMILES	EC50 [1] [nM]
< 25	< 250	< 25	CN[C@@H](C)C(=O)N[C@H](C(=O)N1CCC[C@H]1CN(CCc1ccccc1)C(=O)c1cn2cccnc2n1)C(C)(C)C [Compound 6]	< 250
< 25	< 250	< 25	CN[C@@H](C)C(=O)N[C@H](C(=O)N1CCC[C@H]1CN(CCc1ccc(F)cc1)C(=O)c1cn2ccccc2n1)C1CCCCC1 [Compound 18]	< 50
< 25	< 250	< 25	C[C@H](N)C(=O)N[C@H](C(=O)N1CCC[C@H]1CN(CCc1ccc(F)cc1)C(=O)c1cn2cccnc2n1)C(C)(C)C [Compound 37]	> 1000
< 25	< 250	< 25	CN[C@@H](C)C(=O)N[C@H](C(=O)N1C[C@@H](OCc2ccccc2)C[C@H]1CN(CCc1ccc(F)cc1)C(=O)c1cn2cccnc2n1)C(C)(C)C [Compound 47]	< 250
	< 250	< 25	CN[C@@H](C)C(=O)N[C@H](C(=O)N1CCC[C@H]1CN(CCc1ccc(F)cc1)C(=O)c1cn(-c2c(C)cccc2C)cn1)C(C)(C)C [Compound 54]	< 50
< 25	< 250	< 25	CN[C@@H](C)C(=O)N[C@H](C(=O)N1CCC[C@H]1CN(CCc1ccc(F)cc1)C(=O)c1cn2ccccc2n1)[C@@H](C)OC [Compound 58]	< 50
	< 1000	< 25	CN[C@@H](C)C(=O)N[C@@H](COC)C(=O)N1CCC[C@H]1CN(CCc1ccc(F)cc1)C(=O)c1cn2ccccc2n1 [Compound 60]	< 1000
	< 250	< 25	CN[C@@H](C)C(=O)N[C@H](C(=O)N1CCC[C@H]1CN(CCc1ccc(F)cc1)C(=O)c1nc2ccccc2o1)C(C)(C)C [Compound 62]	< 1000
< 25	< 250	< 25	CN[C@@H](C)C(=O)N[C@H](C(=O)N1CCC[C@H]1CN(CCc1ccc(F)cc1)C(=O)c1cn(-c2ccc(F)cc2)nn1)C(C)(C)C [Compound 125]	
< 25	< 250	< 25	CN[C@@H](C)C(=O)N[C@H](C(=O)N1CCC[C@H]1CN(CCc1ccc(F)cc1)C(=O)c1nnn(-c2ccc(F)cc2)n1)C(C)(C)C [Compound 126]	
